Experimental data from ChEMBL document CHEMBL1201862, “PubChem BioAssay data set” (2004).
The source made the active and inactive calls.

Target: T1, Leucine aminopeptidase (Plasmodium falciparum 3D7, UniProt Q8IL11)
T1 sequence (Q8IL11 whole entry): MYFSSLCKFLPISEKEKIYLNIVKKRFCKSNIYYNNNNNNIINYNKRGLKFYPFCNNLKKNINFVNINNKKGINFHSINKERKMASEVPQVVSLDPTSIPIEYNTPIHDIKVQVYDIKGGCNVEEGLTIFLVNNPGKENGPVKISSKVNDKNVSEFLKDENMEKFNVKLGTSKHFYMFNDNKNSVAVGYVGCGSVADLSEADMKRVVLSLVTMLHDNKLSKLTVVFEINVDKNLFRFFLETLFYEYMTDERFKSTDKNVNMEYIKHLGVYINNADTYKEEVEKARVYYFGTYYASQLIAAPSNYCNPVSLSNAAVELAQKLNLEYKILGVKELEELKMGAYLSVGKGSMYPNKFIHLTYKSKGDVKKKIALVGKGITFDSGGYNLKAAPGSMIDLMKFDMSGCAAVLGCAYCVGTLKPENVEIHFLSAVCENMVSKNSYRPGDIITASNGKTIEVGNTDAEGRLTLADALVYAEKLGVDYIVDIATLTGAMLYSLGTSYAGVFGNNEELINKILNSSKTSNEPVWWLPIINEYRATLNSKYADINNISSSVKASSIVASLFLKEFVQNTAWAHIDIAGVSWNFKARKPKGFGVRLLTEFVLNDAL
Experiment: P. falciparum M17LAP inhibitors, primary screen, biochemical, fluorogenic H-Leu-NHMec substrate, 1536-well (AID 1619)
Type: functional
Conditions: not given

| SMILES | IC50 |
| --- | --- |
| O=C(CN1C(=O)C2C3CC(C(Br)C3Br)C2C1=O)N1CCOCC1 (centres undefined) | 47.5 µM (active) |
| CC1=NNC(=O)C1CCC(=O)N/N=C/c1ccc(Cl)cc1 (centres undefined) | 52.6 µM (active) |
| COc1ccc(Nc2nnc(SCC(=O)N3CCCC3)s2)cc1 | 10.1 µM (active) |
| O=C(O)C1CC=CCC1C(=O)Nc1cccc(F)c1 (centres undefined) | 14.6 µM (active) |
| O=C(O)c1ccc(/C=C/c2ccc3cccc(O)c3n2)cc1 | 55.5 µM (active) |
| O=c1cc(CSc2ccccc2)[nH]c(=S)[nH]1 | 12.5 µM (active) |

System: not listed separately
Experiment: viability of uninfected HEp-2 cells – cell-based, HTS, cytotoxicity control for RSV inhibitor project, dose response (AID 2410)
Type: functional
Conditions: human respiratory syncytial virus

| SMILES | CC50 |
| --- | --- |
| Cc1nc(Cl)c(Cl)n1CCOc1ccccc1 | 20.9 µM (active) |

Target: T2, Aminopeptidase N (Plasmodium falciparum FcB1/Columbia, UniProt O96935)
T2 sequence (O96935 whole entry): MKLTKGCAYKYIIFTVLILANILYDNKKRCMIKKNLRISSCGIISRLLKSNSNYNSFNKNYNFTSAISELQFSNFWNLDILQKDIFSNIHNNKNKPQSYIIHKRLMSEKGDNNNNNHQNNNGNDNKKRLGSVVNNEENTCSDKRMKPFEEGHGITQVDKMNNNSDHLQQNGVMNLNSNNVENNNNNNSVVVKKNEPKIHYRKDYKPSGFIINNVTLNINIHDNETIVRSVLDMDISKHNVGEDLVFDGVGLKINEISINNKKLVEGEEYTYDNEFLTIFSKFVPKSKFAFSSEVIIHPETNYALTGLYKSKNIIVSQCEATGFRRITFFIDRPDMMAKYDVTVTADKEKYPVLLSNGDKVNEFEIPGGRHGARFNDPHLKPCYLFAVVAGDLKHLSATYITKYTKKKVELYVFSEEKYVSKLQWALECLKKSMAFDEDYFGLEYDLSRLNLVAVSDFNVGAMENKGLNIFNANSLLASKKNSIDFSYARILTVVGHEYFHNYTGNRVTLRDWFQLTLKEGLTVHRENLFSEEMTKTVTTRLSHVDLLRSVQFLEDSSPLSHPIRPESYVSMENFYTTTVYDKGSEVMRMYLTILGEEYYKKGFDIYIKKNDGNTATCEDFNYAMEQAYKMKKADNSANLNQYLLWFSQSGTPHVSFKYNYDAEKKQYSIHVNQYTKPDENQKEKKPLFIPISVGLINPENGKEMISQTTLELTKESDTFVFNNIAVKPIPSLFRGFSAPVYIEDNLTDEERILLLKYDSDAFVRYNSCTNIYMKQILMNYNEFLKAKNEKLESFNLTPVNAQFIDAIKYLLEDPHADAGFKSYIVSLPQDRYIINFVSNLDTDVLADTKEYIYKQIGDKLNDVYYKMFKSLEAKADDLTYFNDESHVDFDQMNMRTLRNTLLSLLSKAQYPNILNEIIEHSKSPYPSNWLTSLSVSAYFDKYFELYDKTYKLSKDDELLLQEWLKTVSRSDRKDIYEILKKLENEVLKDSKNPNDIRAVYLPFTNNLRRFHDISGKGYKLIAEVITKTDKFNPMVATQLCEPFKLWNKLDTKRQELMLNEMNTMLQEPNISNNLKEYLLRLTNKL
Experiment: malaria alanyl aminopeptidase activity blockers – biochemical, fluorogenic H-Leu-NHMec substrate, 1536-well (AID 1445)
Design: species or system Plasmodium falciparum 3D7, 3D7
Conditions: not given

| SMILES | IC50 |
| --- | --- |
| O=C(O)c1ccc(/C=C/c2ccc3cccc(O)c3n2)cc1 | 13 µM (active) |
| O=C(Cn1nc2ccccc2n1)N/N=C/c1cc(Cl)cc([N+](=O)[O-])c1O | 45.2 µM (active) |

System: not listed separately
Experiment: cells
Type: functional, cell-based
Conditions: not given

| SMILES | EC50 |
| --- | --- |
| O=C(NCCCN1CCN(c2ccccc2F)CC1)Nc1ccccc1[N+](=O)[O-] | > 350 µM (not active) |
| Oc1ccc(/C=N/NC(=S)NC2CC3CCC2C3)cc1 (centres undefined) | > 350 µM (not active) |
| CCOC(=O)c1c(S(=O)(=O)N2CCC(C)CC2)c(C)n(C)c1C | > 350 µM (not active) |
| Cc1ccc(CNc2ccc3c(c2)nc(C)n3C)cc1 | > 350 µM (not active) |

System: not listed separately
Experiment: Trypanosoma cruzi growth suppression in host cells – NIH3T3 host cells, beta-gal luminescence, confirmation (AID 2044);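 note: intracellular parasites grown in NIH/3T3 mouse fibroblasts as host cells; luminescent beta-galactosidase reporter signal from transgenic T. cruzi replicating inside host cells; inhibitors lower the luminescence signal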
Type: functional, cell-based
Conditions: not given

| SMILES | EC50 |
| --- | --- |
| Cc1ccc(C(CNS(=O)(=O)c2ccc([N+](=O)[O-])cc2)N2CCN(C)CC2)cc1 (centres undefined) | 1.65 µM (active) |
| Cc1ccc(-n2cccc2C(=S)N=P(N(C)C)(N(C)C)N(C)C)cc1 | 0.148 µM (active) |

System: not listed separately
Experiment: microbe, parasite or virus in culture
Type: functional
Conditions: Mycobacterium tuberculosis

| SMILES | CC50 |
| --- | --- |
| Cc1ccc(-n2cccc2C(=S)N=P(N(C)C)(N(C)C)N(C)C)cc1 | > 40 µM (active) |

System: not listed separately
Experiment: cells
Type: functional, cell-based
Conditions: not given
Remark: another data set of the same source

| SMILES | EC50 |
| --- | --- |
| O=C(NCCCN1CCN(c2ccccc2F)CC1)Nc1ccccc1[N+](=O)[O-] | > 350 µM (not active) |
| Oc1ccc(/C=N/NC(=S)NC2CC3CCC2C3)cc1 (centres undefined) | > 350 µM (not active) |
| CCOC(=O)c1c(S(=O)(=O)N2CCC(C)CC2)c(C)n(C)c1C | > 350 µM (not active) |
| Cc1ccc(CNc2ccc3c(c2)nc(C)n3C)cc1 | 34.6 µM (active) |

System: not listed separately
Experiment: NIH3T3 cell viability loss – ATP luminescence, mouse fibroblasts, counter-screen, dose response (AID 2010);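 note: cells exposed to compound for about 90 hours before reading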
Type: functional, cell-based
Conditions: not given

| SMILES | EC50 |
| --- | --- |
| Cc1ccc(C(CNS(=O)(=O)c2ccc([N+](=O)[O-])cc2)N2CCN(C)CC2)cc1 (centres undefined) | > 60 µM (not active) |
| Cc1ccc(-n2cccc2C(=S)N=P(N(C)C)(N(C)C)N(C)C)cc1 | > 30 µM (not active) |

Target: T3, Short transient receptor potential channel 4 (Mus musculus, UniProt Q9QUQ5)
T3 sequence (Q9QUQ5 whole entry): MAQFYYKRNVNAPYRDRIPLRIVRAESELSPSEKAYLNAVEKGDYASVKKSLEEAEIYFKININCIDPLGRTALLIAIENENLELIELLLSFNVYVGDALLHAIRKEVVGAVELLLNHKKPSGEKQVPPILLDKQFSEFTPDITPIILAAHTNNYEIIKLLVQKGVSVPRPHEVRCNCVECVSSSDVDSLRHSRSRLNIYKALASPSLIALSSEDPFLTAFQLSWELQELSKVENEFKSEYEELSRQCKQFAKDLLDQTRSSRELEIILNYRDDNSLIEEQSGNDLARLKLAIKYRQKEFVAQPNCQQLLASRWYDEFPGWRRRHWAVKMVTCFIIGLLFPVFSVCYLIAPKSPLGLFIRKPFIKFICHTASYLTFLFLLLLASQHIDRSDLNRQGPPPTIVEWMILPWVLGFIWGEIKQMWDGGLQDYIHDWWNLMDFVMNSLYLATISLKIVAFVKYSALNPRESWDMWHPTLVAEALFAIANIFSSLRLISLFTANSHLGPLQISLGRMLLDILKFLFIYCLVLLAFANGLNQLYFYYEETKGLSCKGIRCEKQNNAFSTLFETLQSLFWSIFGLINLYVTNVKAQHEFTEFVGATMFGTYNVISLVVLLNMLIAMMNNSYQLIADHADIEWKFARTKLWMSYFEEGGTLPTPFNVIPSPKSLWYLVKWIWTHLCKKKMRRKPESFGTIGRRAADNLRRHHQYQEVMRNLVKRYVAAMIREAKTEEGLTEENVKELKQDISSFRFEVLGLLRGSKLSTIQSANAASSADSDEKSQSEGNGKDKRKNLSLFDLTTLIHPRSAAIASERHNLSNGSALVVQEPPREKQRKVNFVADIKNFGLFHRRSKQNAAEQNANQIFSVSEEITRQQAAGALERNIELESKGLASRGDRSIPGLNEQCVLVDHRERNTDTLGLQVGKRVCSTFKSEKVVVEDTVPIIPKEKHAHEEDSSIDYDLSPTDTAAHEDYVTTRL
Experiment: block of DAMGO-driven TRPC4 calcium entry – cell-based, HEK293 TRPC4/mu-opioid, Fluo-4 calcium, dose response (AID 434942);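 note: potency of inhibitors blocking the TRPC4 calcium response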
Type: functional
Conditions: not given

| SMILES | EC50 |
| --- | --- |
| Cc1ccc(C(CNS(=O)(=O)c2ccc([N+](=O)[O-])cc2)N2CCN(C)CC2)cc1 (centres undefined) | 0.0093 µM (active) |
| Cc1nc(Cl)c(Cl)n1CCOc1ccccc1 | 5.31 µM (active) |

Target: Cytochrome P450 2C19 (Homo sapiens, UniProt P33261)
Experiment: Cytochrome panel assay with activity outcomes. Panel member name: p450-cyp2c19 Compounds with AC50 equal or less than 10 uM are considered active
Type: functional
Conditions: not given

Cytochrome P450 2C19, sequence (P33261 whole entry): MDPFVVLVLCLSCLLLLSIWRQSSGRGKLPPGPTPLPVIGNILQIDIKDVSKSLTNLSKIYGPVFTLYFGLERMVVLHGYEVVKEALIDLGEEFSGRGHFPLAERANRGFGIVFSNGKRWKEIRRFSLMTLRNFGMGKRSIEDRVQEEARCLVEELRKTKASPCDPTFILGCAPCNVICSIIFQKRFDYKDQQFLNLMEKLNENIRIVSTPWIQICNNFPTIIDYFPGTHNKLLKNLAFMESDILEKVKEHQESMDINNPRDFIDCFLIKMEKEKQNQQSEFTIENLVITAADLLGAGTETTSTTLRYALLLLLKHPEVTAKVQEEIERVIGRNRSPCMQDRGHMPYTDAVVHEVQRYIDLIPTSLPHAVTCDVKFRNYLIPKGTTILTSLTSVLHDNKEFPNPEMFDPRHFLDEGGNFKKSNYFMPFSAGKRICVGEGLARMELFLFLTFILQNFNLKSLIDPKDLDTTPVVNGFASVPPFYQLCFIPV

| SMILES | AC50 |
| --- | --- |
| O=c1cc(CSc2ccccc2)[nH]c(=S)[nH]1 | inconclusive |

System: INS1
Experiment: INS-1E survival protection against cytokine death – cell-based, luminescence, retest, dose response (AID 449756);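 note: cell death triggered by IL-1 beta plus TNF-alpha plus IFN-gamma mixture; protective hits raise ATP signal compared with cytokine alone wells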
Type: functional
Conditions: Rattus norvegicus

| SMILES | AC50 |
| --- | --- |
| Cc1ccc(-n2cccc2C(=S)N=P(N(C)C)(N(C)C)N(C)C)cc1 | 6.81 µM (active) |

Target: T4, Fatty acid synthase (Homo sapiens, UniProt P49327)
Experiment: inhibition of human FAS-TE enzyme activity – biochemical, endpoint fluorescence intensity, uHTS hits, dose response (AID 624327);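 note: fluorescence from hydrolysis of an O-methyl fluorescein acyl ester substrate by the enzyme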
Type: functional
Conditions: not given

T4 sequence (P49327 whole entry): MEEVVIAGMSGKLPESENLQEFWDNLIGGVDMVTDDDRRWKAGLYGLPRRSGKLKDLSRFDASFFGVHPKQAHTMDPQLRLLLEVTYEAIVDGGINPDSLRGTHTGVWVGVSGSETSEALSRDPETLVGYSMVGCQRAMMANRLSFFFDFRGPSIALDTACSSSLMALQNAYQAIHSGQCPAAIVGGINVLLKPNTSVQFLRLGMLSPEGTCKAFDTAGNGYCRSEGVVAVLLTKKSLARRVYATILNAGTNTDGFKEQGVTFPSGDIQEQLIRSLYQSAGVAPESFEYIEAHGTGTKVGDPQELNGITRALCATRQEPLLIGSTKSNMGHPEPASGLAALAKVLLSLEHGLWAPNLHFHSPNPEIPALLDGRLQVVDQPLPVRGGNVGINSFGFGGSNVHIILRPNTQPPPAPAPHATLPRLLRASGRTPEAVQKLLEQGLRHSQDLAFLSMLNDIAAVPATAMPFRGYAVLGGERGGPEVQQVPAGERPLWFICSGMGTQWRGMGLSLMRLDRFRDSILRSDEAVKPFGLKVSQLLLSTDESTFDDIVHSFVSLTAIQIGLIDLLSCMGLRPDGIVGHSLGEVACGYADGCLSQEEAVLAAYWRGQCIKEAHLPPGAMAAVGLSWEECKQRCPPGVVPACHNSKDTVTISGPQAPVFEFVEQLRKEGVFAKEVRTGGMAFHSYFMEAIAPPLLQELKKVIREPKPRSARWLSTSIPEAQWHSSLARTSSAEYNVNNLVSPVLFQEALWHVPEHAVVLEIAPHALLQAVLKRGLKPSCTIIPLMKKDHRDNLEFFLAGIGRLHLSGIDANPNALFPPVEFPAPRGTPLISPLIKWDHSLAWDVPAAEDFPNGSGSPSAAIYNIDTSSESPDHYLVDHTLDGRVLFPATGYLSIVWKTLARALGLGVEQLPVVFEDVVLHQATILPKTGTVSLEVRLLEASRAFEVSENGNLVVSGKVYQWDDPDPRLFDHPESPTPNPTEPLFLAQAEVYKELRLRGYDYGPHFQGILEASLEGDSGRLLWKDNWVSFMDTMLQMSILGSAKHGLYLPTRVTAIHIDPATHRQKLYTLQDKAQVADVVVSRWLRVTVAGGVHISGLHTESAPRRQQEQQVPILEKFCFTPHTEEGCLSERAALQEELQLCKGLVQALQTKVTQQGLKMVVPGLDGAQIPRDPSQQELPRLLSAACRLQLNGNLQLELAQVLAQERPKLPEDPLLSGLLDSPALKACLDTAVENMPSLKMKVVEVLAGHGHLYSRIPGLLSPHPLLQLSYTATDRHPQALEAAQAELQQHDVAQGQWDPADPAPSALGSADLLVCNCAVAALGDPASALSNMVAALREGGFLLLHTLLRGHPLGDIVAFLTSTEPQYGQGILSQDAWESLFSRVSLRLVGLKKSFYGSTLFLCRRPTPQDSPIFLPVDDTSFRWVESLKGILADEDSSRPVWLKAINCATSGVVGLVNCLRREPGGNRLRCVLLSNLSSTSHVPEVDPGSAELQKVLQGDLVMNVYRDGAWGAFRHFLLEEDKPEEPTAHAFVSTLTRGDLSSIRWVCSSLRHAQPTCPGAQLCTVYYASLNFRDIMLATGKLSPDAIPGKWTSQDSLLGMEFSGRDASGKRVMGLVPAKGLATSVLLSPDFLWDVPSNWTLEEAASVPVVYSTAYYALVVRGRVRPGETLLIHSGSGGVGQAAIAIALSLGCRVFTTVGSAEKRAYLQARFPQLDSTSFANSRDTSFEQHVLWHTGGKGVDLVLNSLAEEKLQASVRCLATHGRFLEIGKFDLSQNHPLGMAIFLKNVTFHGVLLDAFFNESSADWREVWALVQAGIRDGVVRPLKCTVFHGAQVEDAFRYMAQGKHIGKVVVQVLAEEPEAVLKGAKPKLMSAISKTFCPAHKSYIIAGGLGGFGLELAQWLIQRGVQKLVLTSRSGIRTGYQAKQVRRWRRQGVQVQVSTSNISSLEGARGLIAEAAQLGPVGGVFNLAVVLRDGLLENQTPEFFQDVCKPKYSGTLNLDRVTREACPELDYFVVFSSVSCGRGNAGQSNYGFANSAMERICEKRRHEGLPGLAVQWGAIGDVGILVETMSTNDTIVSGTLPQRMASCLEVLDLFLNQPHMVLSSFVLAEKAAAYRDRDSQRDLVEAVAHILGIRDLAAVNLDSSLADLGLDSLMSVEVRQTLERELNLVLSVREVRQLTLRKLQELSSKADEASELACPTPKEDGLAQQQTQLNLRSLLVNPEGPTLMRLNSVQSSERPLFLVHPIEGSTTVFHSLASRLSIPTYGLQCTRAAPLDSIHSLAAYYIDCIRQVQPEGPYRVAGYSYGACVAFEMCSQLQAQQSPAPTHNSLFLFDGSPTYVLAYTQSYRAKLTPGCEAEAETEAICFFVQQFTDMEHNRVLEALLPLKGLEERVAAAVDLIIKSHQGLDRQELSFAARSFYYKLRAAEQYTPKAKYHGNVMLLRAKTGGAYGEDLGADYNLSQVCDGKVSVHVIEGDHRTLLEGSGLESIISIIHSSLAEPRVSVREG

| SMILES | IC50 |
| --- | --- |
| O=C(Cn1nc2ccccc2n1)N/N=C/c1cc(Cl)cc([N+](=O)[O-])c1O | 8.31 µM (active) |

Target: T4, Fatty acid synthase
Experiment: inhibition of human FAS-TE enzyme activity – biochemical, kinetic fluorescence intensity, dose response (AID 624326);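 note: rate of fluorescence rise from hydrolysis of a fluorogenic O-methyl fluorescein ester substrate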
Type: functional
Conditions: not given

| SMILES | IC50 |
| --- | --- |
| O=C(Cn1nc2ccccc2n1)N/N=C/c1cc(Cl)cc([N+](=O)[O-])c1O | 6.5 µM (active) |

Target: Cytochrome P450 3A4 (Homo sapiens, UniProt P08684);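 note: CYP3A4 tested as one member of a cytochrome P450 panel screen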
Experiment: not given
Conditions: not given

Cytochrome P450 3A4, sequence (P08684 whole entry): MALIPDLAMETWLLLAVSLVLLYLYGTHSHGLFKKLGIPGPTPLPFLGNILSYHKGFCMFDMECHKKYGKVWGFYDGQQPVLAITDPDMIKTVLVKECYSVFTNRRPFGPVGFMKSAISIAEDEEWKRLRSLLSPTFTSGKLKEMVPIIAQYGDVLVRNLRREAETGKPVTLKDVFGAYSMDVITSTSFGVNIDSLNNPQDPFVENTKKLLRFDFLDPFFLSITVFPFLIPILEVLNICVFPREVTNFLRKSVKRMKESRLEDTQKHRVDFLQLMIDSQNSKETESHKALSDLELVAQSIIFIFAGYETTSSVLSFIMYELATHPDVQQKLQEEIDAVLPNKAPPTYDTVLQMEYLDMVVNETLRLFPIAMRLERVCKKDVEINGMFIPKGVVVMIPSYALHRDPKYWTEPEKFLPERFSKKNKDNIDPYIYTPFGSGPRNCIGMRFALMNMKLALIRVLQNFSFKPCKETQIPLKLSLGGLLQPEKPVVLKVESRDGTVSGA

| SMILES | AC50 |
| --- | --- |
| O=c1cc(CSc2ccccc2)[nH]c(=S)[nH]1 | 28.2 µM (inconclusive) |
